What was measured:
Test in all cases: KINOMEscan binding assay
PKN2 = biological target: T1, PKN2 (Homo sapiens, UniProt Q16513); details: read-out: % Retention on Solid Support
T1 construct: purchased DiscoveRx KINOMEscan
Method in brief: (§1)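 We profiled i-CDK9 by active-site-directed competitive binding, testing 1 µM and 10 µM against over 400 kinases.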

SIK2 = biological target: T2, SIK2 (Homo sapiens, UniProt Q9H0K1); details: read-out: % Retention on Solid Support
T2 construct: purchased DiscoveRx KINOMEscan
Method in brief: as §1

AURKB = biological target: T3, AURKB (Homo sapiens, UniProt Q96GD4); details: read-out: % Retention on Solid Support
T3 construct: purchased DiscoveRx KINOMEscan
T3 sequence (Q96GD4 whole entry): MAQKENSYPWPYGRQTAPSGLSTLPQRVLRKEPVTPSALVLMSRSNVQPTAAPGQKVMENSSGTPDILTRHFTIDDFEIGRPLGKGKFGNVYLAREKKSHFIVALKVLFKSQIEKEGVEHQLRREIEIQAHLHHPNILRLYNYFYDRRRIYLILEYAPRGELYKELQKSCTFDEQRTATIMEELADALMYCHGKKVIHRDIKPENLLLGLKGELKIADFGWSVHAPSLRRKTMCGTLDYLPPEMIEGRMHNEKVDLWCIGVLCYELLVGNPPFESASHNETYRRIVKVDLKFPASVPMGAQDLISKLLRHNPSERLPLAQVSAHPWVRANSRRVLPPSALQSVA
Method in brief: as §1

[1] = biological target: T4, ABL1(H396P)-phosphorylated (Homo sapiens, UniProt P00519, H396P); details: 1 µM i-CDK9; read-out: % Retention on Solid Support
T4 construct: purchased DiscoveRx KINOMEscan
Method in brief: as §1

CSNK2A1 = biological target: T5, CSNK2A1 (Homo sapiens, UniProt P68400); details: read-out: % Retention on Solid Support
T5 construct: purchased DiscoveRx KINOMEscan
Method in brief: as §1

ACVR1 = biological target: T6, ACVR1 (Homo sapiens, UniProt Q04771); details: read-out: % Retention on Solid Support
T6 construct: purchased DiscoveRx KINOMEscan
Method in brief: as §1

[2] = biological target: T7, TYK2(JH1domain-catalytic) (Homo sapiens, UniProt P29597)
T7 construct: TYK2(JH1domain-catalytic); purchased DiscoveRx KINOMEscan
T7 sequence (P29597 871-1187 limits assumed): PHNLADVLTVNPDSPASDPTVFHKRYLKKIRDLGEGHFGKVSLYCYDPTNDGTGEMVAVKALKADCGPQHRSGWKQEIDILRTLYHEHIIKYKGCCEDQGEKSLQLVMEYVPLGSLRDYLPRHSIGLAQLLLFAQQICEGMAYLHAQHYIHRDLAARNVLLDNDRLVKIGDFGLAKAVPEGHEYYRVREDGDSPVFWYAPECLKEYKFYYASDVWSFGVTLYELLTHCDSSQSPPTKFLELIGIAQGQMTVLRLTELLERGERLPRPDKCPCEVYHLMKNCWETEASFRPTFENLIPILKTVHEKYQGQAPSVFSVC
Method in brief: as §1

MAP3K1 = biological target: T8, MAP3K1 (Homo sapiens, UniProt Q13233); details: read-out: % Retention on Solid Support
T8 construct: purchased DiscoveRx KINOMEscan
Method in brief: as §1

MARK4 = biological target: T9, MARK4 (Homo sapiens, UniProt Q96L34)
T9 construct: purchased DiscoveRx KINOMEscan
Method in brief: as §1

SIK = biological target: T10, SIK (Homo sapiens, UniProt P57059)
T10 construct: purchased DiscoveRx KINOMEscan
T10 sequence (P57059 whole entry): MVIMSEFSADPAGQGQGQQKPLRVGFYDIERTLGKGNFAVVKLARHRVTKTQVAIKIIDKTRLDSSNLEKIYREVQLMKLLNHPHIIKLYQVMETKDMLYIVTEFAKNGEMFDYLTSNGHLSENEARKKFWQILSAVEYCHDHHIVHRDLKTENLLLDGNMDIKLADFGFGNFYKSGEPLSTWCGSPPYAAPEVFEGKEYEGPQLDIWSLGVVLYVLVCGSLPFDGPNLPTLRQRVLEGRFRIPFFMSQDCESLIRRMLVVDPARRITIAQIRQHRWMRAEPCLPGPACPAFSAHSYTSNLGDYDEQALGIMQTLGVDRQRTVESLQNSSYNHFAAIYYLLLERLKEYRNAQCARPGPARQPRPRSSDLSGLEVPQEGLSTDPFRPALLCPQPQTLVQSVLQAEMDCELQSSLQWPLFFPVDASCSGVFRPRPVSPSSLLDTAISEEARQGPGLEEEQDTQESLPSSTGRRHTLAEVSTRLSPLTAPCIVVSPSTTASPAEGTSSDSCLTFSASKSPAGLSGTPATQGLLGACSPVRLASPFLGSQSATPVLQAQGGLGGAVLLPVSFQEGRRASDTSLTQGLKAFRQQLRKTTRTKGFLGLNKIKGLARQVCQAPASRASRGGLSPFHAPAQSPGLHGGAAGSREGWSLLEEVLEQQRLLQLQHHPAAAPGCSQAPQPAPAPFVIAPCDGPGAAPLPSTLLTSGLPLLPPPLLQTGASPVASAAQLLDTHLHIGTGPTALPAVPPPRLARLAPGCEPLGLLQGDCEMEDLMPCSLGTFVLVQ
Method in brief: as §1

SNARK = biological target: T11, SNARK (Homo sapiens, UniProt Q9H093)
T11 construct: purchased DiscoveRx KINOMEscan
T11 sequence (Q9H093 whole entry): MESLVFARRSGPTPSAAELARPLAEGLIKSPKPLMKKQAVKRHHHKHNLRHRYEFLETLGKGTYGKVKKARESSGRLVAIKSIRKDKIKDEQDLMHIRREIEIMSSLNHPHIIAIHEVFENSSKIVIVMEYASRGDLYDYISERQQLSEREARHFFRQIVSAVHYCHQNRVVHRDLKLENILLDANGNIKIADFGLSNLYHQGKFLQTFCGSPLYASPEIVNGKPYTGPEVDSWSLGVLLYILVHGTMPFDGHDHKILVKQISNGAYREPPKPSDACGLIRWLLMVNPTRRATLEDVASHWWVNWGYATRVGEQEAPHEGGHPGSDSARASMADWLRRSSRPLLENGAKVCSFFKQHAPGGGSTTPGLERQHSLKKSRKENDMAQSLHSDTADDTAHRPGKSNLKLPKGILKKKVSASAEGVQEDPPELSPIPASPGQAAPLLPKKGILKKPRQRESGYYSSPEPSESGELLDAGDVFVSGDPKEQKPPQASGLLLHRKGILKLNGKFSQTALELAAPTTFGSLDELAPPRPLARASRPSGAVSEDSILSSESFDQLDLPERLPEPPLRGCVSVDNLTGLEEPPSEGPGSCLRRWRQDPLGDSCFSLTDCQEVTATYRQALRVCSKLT
Method in brief: as §1

PRKCI = biological target: T12, PRKCI (Homo sapiens, UniProt P41743); details: 1 µM i-CDK9; read-out: % Retention on Solid Support
T12 construct: purchased DiscoveRx KINOMEscan
Method in brief: as §1

QSK = biological target: T13, QSK (Homo sapiens, UniProt Q9Y2K2)
T13 construct: purchased DiscoveRx KINOMEscan
Method in brief: as §1

STK36 = biological target: T14, STK36 (Homo sapiens, UniProt Q9NRP7); details: read-out: % Retention on Solid Support
T14 construct: purchased DiscoveRx KINOMEscan
Method in brief: as §1

SYK = biological target: T15, SYK (Homo sapiens, UniProt P43405)
T15 construct: purchased DiscoveRx KINOMEscan
Method in brief: as §1

EGFR(E746-A750del) = biological target: T16, EGFR(E746-A750del) (Homo sapiens, UniProt P00533, DEL746-750)
T16 construct: purchased DiscoveRx KINOMEscan
Method in brief: as §1

MEK1 = biological target: T17, MEK1 (Homo sapiens, UniProt Q02750); details: read-out: % Retention on Solid Support
T17 construct: purchased DiscoveRx KINOMEscan
Method in brief: as §1

MARK3 = biological target: T18, MARK3 (Homo sapiens, UniProt P27448); details: read-out: % Retention on Solid Support
T18 construct: purchased DiscoveRx KINOMEscan
Method in brief: as §1

PFTAIRE2 = biological target: T19, PFTAIRE2 (Homo sapiens, UniProt Q96Q40); details: read-out: % Retention on Solid Support
T19 construct: purchased DiscoveRx KINOMEscan
T19 sequence (Q96Q40 whole entry): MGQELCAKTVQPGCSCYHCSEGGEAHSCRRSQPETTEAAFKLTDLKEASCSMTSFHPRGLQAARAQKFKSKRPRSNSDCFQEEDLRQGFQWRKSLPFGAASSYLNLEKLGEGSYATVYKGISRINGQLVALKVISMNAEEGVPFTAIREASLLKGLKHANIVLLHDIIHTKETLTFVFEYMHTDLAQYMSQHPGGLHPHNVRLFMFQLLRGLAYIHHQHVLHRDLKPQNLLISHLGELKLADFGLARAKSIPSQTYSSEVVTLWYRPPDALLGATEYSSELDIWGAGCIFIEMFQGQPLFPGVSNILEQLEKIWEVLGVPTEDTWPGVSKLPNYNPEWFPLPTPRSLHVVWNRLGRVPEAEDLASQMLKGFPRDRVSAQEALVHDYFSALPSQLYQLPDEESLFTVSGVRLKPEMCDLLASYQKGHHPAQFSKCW
Method in brief: as §1

EPHB2 = biological target: T20, EPHB2 (Homo sapiens, UniProt P29323)
T20 construct: purchased DiscoveRx KINOMEscan
Method in brief: as §1

DMPK2 = biological target: T21, DMPK2 (Homo sapiens, UniProt Q6DT37); details: read-out: % Retention on Solid Support
T21 construct: purchased DiscoveRx KINOMEscan
T21 sequence (Q6DT37 whole entry): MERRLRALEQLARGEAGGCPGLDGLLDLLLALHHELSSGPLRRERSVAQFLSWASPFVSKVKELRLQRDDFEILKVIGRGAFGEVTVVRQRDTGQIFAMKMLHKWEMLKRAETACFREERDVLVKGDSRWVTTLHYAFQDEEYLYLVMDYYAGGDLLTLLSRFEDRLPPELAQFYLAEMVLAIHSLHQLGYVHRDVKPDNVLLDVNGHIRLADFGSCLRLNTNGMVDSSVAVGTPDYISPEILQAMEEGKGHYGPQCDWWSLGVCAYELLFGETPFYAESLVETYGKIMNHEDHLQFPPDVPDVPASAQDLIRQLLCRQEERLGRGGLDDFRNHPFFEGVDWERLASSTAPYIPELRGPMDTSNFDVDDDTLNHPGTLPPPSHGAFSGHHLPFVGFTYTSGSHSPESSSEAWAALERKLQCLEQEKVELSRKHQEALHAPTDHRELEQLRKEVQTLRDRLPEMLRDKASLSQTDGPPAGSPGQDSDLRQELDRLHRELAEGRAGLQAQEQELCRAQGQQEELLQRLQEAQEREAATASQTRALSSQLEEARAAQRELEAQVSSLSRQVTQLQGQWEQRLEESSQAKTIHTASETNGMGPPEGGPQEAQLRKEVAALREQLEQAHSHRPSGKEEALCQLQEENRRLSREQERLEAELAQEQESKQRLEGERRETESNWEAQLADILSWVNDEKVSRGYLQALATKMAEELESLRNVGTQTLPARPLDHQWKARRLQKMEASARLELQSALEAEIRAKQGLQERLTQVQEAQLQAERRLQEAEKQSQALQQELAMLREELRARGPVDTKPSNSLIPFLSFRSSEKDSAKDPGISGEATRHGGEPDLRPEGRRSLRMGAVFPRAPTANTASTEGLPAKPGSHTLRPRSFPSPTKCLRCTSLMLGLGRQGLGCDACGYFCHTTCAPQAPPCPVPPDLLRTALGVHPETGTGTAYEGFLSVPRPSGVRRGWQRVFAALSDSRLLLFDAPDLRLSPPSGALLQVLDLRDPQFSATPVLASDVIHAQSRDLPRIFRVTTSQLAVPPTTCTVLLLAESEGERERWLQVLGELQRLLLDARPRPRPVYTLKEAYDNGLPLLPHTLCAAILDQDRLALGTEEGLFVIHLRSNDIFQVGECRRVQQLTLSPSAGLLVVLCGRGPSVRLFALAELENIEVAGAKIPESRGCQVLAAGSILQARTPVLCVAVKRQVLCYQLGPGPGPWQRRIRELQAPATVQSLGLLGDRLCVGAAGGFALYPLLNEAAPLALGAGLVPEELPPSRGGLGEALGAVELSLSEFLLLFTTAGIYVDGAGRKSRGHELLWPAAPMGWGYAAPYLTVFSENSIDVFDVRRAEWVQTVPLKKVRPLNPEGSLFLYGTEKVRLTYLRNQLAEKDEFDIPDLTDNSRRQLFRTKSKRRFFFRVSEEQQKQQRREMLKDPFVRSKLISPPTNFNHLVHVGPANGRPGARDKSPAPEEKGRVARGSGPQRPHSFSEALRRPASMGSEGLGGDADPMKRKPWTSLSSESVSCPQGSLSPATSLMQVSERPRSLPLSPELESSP
Method in brief: as §1

ASK1 = biological target: T22, ASK1 (Homo sapiens, UniProt Q99683); details: read-out: % Retention on Solid Support
T22 construct: purchased DiscoveRx KINOMEscan
Method in brief: as §1

CSNK1D = biological target: T23, CSNK1D (Homo sapiens, UniProt P48730); details: read-out: % Retention on Solid Support
T23 construct: purchased DiscoveRx KINOMEscan
Method in brief: as §1

ARK5 = biological target: T24, ARK5 (Homo sapiens, UniProt O60285)
T24 construct: purchased DiscoveRx KINOMEscan
T24 sequence (O60285 whole entry): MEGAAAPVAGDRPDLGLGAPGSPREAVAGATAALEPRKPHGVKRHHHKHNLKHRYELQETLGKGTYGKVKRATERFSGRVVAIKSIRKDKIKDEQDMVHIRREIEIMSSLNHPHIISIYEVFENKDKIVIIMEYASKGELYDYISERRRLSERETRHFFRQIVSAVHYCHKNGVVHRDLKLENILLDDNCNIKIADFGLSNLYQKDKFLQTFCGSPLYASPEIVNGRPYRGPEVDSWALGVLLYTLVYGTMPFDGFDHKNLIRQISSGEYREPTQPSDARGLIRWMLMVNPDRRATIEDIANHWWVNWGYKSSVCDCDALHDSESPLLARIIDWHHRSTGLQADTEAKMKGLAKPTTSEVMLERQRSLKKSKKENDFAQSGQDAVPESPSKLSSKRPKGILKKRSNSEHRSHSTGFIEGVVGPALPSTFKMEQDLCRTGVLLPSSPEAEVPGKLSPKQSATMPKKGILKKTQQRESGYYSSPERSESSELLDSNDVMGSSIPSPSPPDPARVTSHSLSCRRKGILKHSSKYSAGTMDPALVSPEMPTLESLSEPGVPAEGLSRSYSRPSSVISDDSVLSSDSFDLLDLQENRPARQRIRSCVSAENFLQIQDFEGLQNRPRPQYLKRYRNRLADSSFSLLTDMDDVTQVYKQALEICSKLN
Method in brief: as §1

SgK110 = biological target: T25, SgK110 (Homo sapiens, UniProt P0C264); details: read-out: % Retention on Solid Support
T25 construct: purchased DiscoveRx KINOMEscan
Method in brief: as §1

N[C@H]1CC[C@H](Nc2cc(-c3cccc(NCc4cccc(F)c4)n3)c(Cl)cn2)CC1 [i-CDK9, N2′-(trans-4-aminocyclohexyl)-5′-chloro-N6-(3-fluorobenzyl)-2,4′-bipyridine-2′,6-diamine]
remaining binding at 1 µM (PKN2; 1 µM i-CDK9): 52% | remaining binding at 10 µM (PKN2; 10 µM i-CDK9): 93% | remaining binding at 1 µM (SIK2; 1 µM i-CDK9): 90% | remaining binding at 10 µM (SIK2; 10 µM i-CDK9): 64% | remaining binding at 1 µM (AURKB; 1 µM i-CDK9): 72% | remaining binding at 10 µM (AURKB; 10 µM i-CDK9): 91% | remaining binding at 1 µM [1]: 92% | remaining binding at 1 µM (CSNK2A1; 1 µM i-CDK9): 100% | remaining binding at 10 µM (CSNK2A1; 10 µM i-CDK9): 100% | remaining binding at 1 µM (ACVR1; 1 µM i-CDK9): 100% | remaining binding at 10 µM (ACVR1; 10 µM i-CDK9): 100% | % Retention on Solid Support ([2]; 1 µM i-CDK9): 62% | % Retention on Solid Support ([2]; 10 µM i-CDK9): 100% | remaining binding at 1 µM (MAP3K1; 1 µM i-CDK9): 93% | remaining binding at 10 µM (MAP3K1; 10 µM i-CDK9): 100% | % Retention on Solid Support (MARK4; 1 µM i-CDK9): 100% | % Retention on Solid Support (MARK4; 10 µM i-CDK9): 100% | % Retention on Solid Support (SIK; 1 µM i-CDK9): 100% | % Retention on Solid Support (SIK; 10 µM i-CDK9): 100% | % Retention on Solid Support (SNARK; 1 µM i-CDK9): 100% | % Retention on Solid Support (SNARK; 10 µM i-CDK9): 87% | remaining binding at 1 µM (PRKCI): 100% | % Retention on Solid Support (QSK; 1 µM i-CDK9): 7.4% | % Retention on Solid Support (QSK; 10 µM i-CDK9): 92% | remaining binding at 1 µM (STK36; 1 µM i-CDK9): 92% | remaining binding at 10 µM (STK36; 10 µM i-CDK9): 68% | % Retention on Solid Support (SYK; 1 µM i-CDK9): 86% | % Retention on Solid Support (SYK; 10 µM i-CDK9): 100% | % Retention on Solid Support (EGFR(E746-A750del); 1 µM i-CDK9): 0% | % Retention on Solid Support (EGFR(E746-A750del); 10 µM i-CDK9): 78% | remaining binding at 1 µM (MEK1; 1 µM i-CDK9): 100% | remaining binding at 10 µM (MEK1; 10 µM i-CDK9): 100% | remaining binding at 1 µM (MARK3; 1 µM i-CDK9): 94% | remaining binding at 10 µM (MARK3; 10 µM i-CDK9): 71% | remaining binding at 1 µM (PFTAIRE2; 1 µM i-CDK9): 72% | remaining binding at 10 µM (PFTAIRE2; 10 µM i-CDK9): 13% | % Retention on Solid Support (EPHB2; 1 µM i-CDK9): 100% | % Retention on Solid Support (EPHB2; 10 µM i-CDK9): 66% | remaining binding at 1 µM (DMPK2; 1 µM i-CDK9): 100% | remaining binding at 10 µM (DMPK2; 10 µM i-CDK9): 100% | remaining binding at 1 µM (ASK1; 1 µM i-CDK9): 100% | remaining binding at 10 µM (ASK1; 10 µM i-CDK9): 100% | remaining binding at 1 µM (CSNK1D; 1 µM i-CDK9): 47% | remaining binding at 10 µM (CSNK1D; 10 µM i-CDK9): 33% | % Retention on Solid Support (ARK5; 1 µM i-CDK9): 72% | % Retention on Solid Support (ARK5; 10 µM i-CDK9): 100% | remaining binding at 1 µM (SgK110; 1 µM i-CDK9): 72% | remaining binding at 10 µM (SgK110; 10 µM i-CDK9): 100%

Reference: article PMC4490784, “Compensatory induction of MYC expression by sustained CDK9 inhibition via a BRD4-dependent mechanism” (eLife, 2015)
